Read-outs that look alike come from different tables or passages of the source.
Tests used:
[1] = Wild-type MDCK permeability and efflux assay (Papp, efflux ratio); assay type: in vitro ADME; conditions: dog, pH 7.4, wild-type MDCK cells; for efflux ratio at 1 h, 10 μM: Papp B>A/Papp A>B, read-out: ER WT (Efflux Ratio)
Procedure: (§1) The MDR1-MDCK effective efflux assay was performed as described in the BioFocus Standard Operating Procedure, ADME-SOP-56. Both wild-type (WT) and MDR1-MDCK cells (Solvo Biotechnology) were seeded onto 24-well Transwell plates at 2.35×10^5 cells per well and used in confluent monolayers after a 3 day culture at 37° C. under 5% CO2. For both cell types, test and control compounds (propranolol, vinblastine) were added (10 μM, 0.1% DMSO final, n=2) to donor compartments of the Transwell plate assembly in assay buffer (Hanks balanced salt solution supplemented with 25 mM HEPES, adjusted to pH 7.4) for both apical to basolateral (A>B) and basolateral to apical (B>A) measurements. Incubations were performed at 37° C., with samples removed from both donor and acceptor chambers at T=0 and 1 hour and compound analysed by mass spectrometry (LC-MS/MS) including an analytical internal standard.
(§2) Apparent permeability (Papp) values were determined from the relationship: Papp=[CompoundAcceptor T=end]×V Acceptor/([Compound Donor T=0]×V Donor)/incubation time×V Donor/Area×60×10^−6 cm/s
(§3) In this equation, V is the volume of each Transwell compartment (apical 125 μL, basolateral 600 μL), and concentrations are the relative MS responses for compound (normalized to internal standard) in the donor chamber before incubation and acceptor chamber at the end of the incubation, and Area is the area of cells exposed for drug transfer (0.33 cm^2).
(§4) Efflux ratios (Papp B>A/Papp A>B) were calculated for each compound from the mean Papp values in each direction for both wild-type and MDR1-MDCK cells.
(§5) In order to confirm the involvement of MDR1 in any efflux seen, an “effective efflux ratio” (EER) was calculated by comparing compound efflux ratios (ER) in the two cell types by the following equation: EER=ER(MDR1-MDCK)/ER(wild-type MDCK)
(§6) This ratio illustrates the effect of the over-expressed MDR1 normalised for the background movement of compound through the wild-type cells.
(§7) Lucifer Yellow (LY) was added to the apical buffer in all wells to assess viability of the cell layer. […] Recoveries<50% indicates compound solubility, stability or binding issues, thereby reducing the reliability of a result.
(§8) The inherent ability of a potential drug molecule to penetrate the blood brain barrier and avoid efflux by transporters expressed in the brain, can be roughly correlated with the Papp(A-B) and the efflux ratio (as defined above), respectively. A potential drug molecule with an apparent permeability<7 (10^−6 cm/sec) has low permeability (+), >7 (10^−6 cm/sec) but <10 (10^−6 cm/sec) has moderate permeability (++), >10 (10^−6 cm/sec) but <20 (10^−6 cm/sec) has good permeability (+++), and >20 (10^−6 cm/sec) is highly permeable (++++). High permeability in the WT and MDCK II cell permeability assay increases the probability of blood brain barrier penetration and access to the CNS. A potential drug molecule in the above assay system with an efflux ratio or effective efflux ratio of <1 has low probability of being an efflux substrate (++++), >1 but <2 has moderate probability of being an efflux substrate (+++), >2 but <3 has has an increased probability of being an efflux substrate (++), and >3 has a high probability of being an efflux substrate (+). If a potential drug molecule is an efflux substrate, the molecule will have a low probability of reaching exposures in the brain (site of action) that will result in efficacious levels of receptor occupancy.

[2] = target: T1, human Arginine Vasopressin Receptor 1a (AVPR1a) (Homo sapiens, UniProt P37288); assay: Vasopressin V1a receptor antagonist assay (FLIPR calcium, CHO-AVPR1a cells); assay type: cell-based
T1 construct: expressed in transfected cells; host or cells: CHO (CHO-AVPR1a, kept under G418 selection)
How it was run: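 CHO cells expressing human AVPR1a were loaded with Calcium-6 dye and preincubated with compound for 15 min at 37° C. Cells were then challenged with AVP at its daily-determined EC80, and FLIPR fluorescence was read. Compounds were tested in duplicate as 10-point 1:3 dilutions from a top final concentration of 3 μM.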

[3] = target: T2, MDR1 (P-glycoprotein) (Homo sapiens, UniProt P08183); assay: MDR1-MDCK permeability and efflux assay (Papp, efflux ratio, effective efflux ratio); assay type: in vitro ADME; conditions: dog; for Papp A→B at 1 h, 10 μM: pH 7.4, read-out: Papp AB MDR1
T2 construct: host or cells: MDCK (MDR1-MDCK; wild-type MDCK as comparator)
Procedure: as §1, §2, §3, §4, §5, §6, §7, §8

[4] = target: T3, human Arginine Vasopressin Receptor 1b (AVPR1b) (Homo sapiens, UniProt P47901); assay: Vasopressin V1b receptor antagonist assay (FLIPR calcium, CHO-AVPR1b cells); assay type: cell-based
T3 construct: expressed in transfected cells; host or cells: CHO (CHO-AVPR1b, kept under G418 selection)
T3 sequence (P47901 1-424): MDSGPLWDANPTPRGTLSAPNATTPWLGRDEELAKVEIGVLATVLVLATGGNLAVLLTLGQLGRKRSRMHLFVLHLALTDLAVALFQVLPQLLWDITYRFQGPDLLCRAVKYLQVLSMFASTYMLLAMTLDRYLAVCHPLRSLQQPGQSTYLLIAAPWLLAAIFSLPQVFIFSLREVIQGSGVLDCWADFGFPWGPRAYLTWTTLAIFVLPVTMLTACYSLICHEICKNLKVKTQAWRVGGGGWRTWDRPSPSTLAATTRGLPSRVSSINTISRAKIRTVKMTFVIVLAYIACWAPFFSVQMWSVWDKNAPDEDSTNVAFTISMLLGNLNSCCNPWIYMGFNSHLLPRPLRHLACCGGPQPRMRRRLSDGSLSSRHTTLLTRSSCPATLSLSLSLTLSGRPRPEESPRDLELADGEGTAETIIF
Procedure: The purpose of the assay was to determine the inhibitory effect of synthesized compounds on the Vasopressin V1b receptor. The assay was performed in Chinese Hamster Ovary (CHO) cells expressing the human Arginine Vasopressin Receptor 1b (AVPR1b). Arginine Vasopressin (AVP) evokes an increase in intracellular calcium in CHO-AVPR1b cells which is measured in a fluorescence assay on the FLIPR^TETRA using calcium sensitive dyes. Test compounds were assessed for their ability to affect the magnitude of the response to AVP, with antagonists showing a concentration-dependent reduction in the AVP-mediated fluorescence.
CHO-AVPR1b cells were maintained in routine culture in T175 Flasks at 37° C., 5% CO2. The growth medium consisted of Ham's F12 media supplemented with 10% v/v fetal bovine serum, 1× non-essential amino acids, and 0.4 mg/ml Geneticin G418.
Cells were harvested from T175 flasks when they were 80-90% confluent by first washing the cell monolayer with PBS and then dissociated using trypsin 0.05%/EDTA (3 mL for a T175 Flask). The flasks were incubated at room temperature until the cells detached. To the cell suspension, 10 ml of growth media was added and the cell density determined using the Vi-Cell automated cell counter. The cells were spun at 1000 rpm for 3 minutes, then the supernatant was carefully removed and discarded. The cell pellet was re-suspended at 6.0e^5 cells/ml in growth media. 25 μL of cells in growth media was dispensed into each well (15,000 cells per well) of a poly-D-lysine coated black, clear bottomed, 384-well plate. The plates were incubated at 37° C., 5% CO2 overnight.
At the start of each assay day, the potency of AVP was assessed and an EC80 concentration determined for subsequent compound profiling. Assays were performed using a two-step addition protocol on the FLIPR^TETRA; first addition of 5 μl of control or test compound at 10× final in assay buffer with 15 min incubation at 37° C., 5% CO2 followed by 10 μl of AVP at 6× final concentration in assay buffer. Changes in fluorescence were monitored for 3 min after both additions on the FLIPR^TETRA using 470-495 nm excitation and 515-575 nm emission wavelengths. The assay buffer consisted of HBSS (+Ca/+Mg) supplemented with 20 mM HEPES, and for the preparation of the AVP agonist only, 0.1% w/v bovine serum albumin. The assay was initiated by the removal of growth media from the cells and replacement with 45 μl of Calcium-6 dye (Molecular Devices) prepared at 1× in assay buffer. Cells were loaded with dye for 60-90 min at 37° C., 5% CO2 before initiation of the FLIPR^TETRA protocol. […] For compound profiling, test compounds were first serially diluted in DMSO (10-point curve, 1:3 dilutions) then diluted 33.3-fold in assay buffer prior to addition to the dye loaded cells on the FLIPR^TETRA. At the end of the incubation period 10 μl of AVP in assay buffer containing 0.1% BSA was added at the previously determined EC80 concentration.
In-plate controls for the assay included a Nelivaptan concentration-response curve as the reference V1b antagonist and an AVP concentration-response curve to confirm the reproducibility of the EC80 used for the compound challenge.

[5] = MDCK-MDR1, pH 7.4, ER(MDR1-MDCK)/ER(wild-type MDCK), read-out: EER (Effective Efflux Ratio)
[6] = MDCK-MDR1, pH 7.4, Papp B>A/Papp A>B, MDR1-MDCK cells, read-out: ER MDR1 (Efflux Ratio)

T1 sequence (P37288 whole entry): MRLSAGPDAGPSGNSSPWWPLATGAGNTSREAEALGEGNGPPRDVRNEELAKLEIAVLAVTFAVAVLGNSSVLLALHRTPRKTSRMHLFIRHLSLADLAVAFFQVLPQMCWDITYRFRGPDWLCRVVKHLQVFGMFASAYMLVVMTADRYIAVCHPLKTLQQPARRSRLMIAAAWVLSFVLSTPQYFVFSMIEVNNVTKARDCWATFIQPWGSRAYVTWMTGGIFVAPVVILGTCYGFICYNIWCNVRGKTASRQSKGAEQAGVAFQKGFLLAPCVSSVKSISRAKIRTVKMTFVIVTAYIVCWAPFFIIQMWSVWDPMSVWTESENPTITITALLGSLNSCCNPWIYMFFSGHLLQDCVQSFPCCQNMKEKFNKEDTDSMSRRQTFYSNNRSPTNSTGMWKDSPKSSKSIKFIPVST
T2 sequence (P08183 whole entry): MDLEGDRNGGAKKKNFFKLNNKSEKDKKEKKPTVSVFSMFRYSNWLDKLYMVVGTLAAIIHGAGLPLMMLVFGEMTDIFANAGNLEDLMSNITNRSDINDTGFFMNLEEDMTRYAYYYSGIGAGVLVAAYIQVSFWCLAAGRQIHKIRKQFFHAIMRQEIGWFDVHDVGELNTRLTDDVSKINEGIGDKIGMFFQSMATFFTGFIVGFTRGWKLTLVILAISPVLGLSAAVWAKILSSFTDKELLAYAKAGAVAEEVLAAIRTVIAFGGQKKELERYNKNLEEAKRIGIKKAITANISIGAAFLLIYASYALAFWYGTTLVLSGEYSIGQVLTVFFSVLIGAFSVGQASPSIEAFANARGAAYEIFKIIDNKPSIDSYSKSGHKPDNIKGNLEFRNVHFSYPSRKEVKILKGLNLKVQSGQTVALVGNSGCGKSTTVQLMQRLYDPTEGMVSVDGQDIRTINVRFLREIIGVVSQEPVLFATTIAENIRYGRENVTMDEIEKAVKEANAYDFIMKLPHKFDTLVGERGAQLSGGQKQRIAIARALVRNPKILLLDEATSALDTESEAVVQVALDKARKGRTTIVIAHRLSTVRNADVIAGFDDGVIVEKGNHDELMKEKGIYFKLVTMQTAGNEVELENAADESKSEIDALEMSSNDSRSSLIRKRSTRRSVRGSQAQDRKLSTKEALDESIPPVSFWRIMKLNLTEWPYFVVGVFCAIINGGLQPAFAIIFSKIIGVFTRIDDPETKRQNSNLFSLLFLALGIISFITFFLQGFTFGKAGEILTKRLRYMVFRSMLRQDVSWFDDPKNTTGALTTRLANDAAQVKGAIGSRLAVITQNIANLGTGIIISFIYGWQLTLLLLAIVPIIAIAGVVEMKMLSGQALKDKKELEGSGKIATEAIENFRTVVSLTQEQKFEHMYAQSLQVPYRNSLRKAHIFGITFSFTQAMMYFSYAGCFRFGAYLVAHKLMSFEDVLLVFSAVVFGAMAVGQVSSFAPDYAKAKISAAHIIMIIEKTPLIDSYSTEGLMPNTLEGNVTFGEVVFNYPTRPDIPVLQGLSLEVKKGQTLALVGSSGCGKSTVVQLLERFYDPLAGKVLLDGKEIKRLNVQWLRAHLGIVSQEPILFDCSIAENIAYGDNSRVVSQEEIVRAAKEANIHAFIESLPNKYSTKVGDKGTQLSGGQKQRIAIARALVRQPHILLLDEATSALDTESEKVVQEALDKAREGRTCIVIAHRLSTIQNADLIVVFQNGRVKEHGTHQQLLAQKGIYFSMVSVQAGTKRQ

Row | Papp A→B at 1 h, 10 μM [1] [×10⁻⁶ cm/s] | efflux ratio at 1 h, 10 μM [1] | IC50 [2] [µM] | efflux ratio at 1 h, 10 μM [3, 5] | efflux ratio at 1 h, 10 μM [3, 6] | Papp A→B at 1 h, 10 μM ([3]; MDR1-MDCK cells) [×10⁻⁶ cm/s] | IC50 [4] [µM] | Structure (SMILES)
1 | > 20 | < 1 | ≥ 1 | 1 to 2 | < 1 | > 20 |  | CC1COc2cc(Cl)ccc2N1C(=O)N1CC2(C1)CN(c1cc(C#N)ccn1)C2 (single isomer, unassigned) [20-6-A]
2 | > 20 | 1 to 2 | < 0.1 | > 3 | > 3 | > 20 |  | O=C(N1CC2(C1)CN(c1cnccn1)C2)N1CCC(O)c2cc(Cl)ccc21 (single isomer, unassigned) [13-3-B]
3 |  |  | < 0.1 |  |  |  | ≥ 1 | O=C(N1CC2(C1)CN(c1ncccc1F)C2)N1CCOc2cc(Cl)ccc21 [1-1, (7-chloro-2,3-dihydro-4H-benzo[b][1,4]oxazin-4-yl)(6-(3-fluoropyridin-2-yl)-2,6-diazaspiro[3.3]heptan-2-yl)methanone]
4 | > 20 | < 1 | ≥ 1 | < 1 | < 1 | > 20 |  | Cc1nc(N2CC3(CN(C(=O)N4c5ccc(Cl)cc5OCC4C)C3)C2)ncc1F (single isomer, unassigned) [20-7-A]
5 | > 20 | 1 to 2 | < 0.1 | < 1 | 1 to 2 | > 20 |  | CC1COc2cc(F)ccc2N1C(=O)N1CC2(C1)CN(c1cc(C#N)ccn1)C2 (centres unmarked) [20-3]
6 | > 20 | < 1 | ≥ 1 | 1 to 2 | < 1 | > 20 |  | CC1COc2cc(F)ccc2N1C(=O)N1CC2(C1)CN(c1ccc(F)cn1)C2 (single isomer, unassigned) [12-1-A]
